For two compounds, Max binding and Survival results are on record in ChEMBL document CHEMBL1135817, “New templates for syntheses of ring-fused, C(10) beta-turn peptidomimetics leading to the first reported small-molecule mimic of neurotrophin-3” (2002).

Each structure is given as a SMILES string.

Assay [1] deals with High affinity nerve growth factor receptor (Homo sapiens) (UniProt P04629). Kind of assay: Binding of FITCanti-TrkA-Ab to human TrkA receptor transfected NIH3T3 cells (positive control). The format is cell-based.
High affinity nerve growth factor receptor (Homo sapiens), sequence (P04629 33-796 limits assumed): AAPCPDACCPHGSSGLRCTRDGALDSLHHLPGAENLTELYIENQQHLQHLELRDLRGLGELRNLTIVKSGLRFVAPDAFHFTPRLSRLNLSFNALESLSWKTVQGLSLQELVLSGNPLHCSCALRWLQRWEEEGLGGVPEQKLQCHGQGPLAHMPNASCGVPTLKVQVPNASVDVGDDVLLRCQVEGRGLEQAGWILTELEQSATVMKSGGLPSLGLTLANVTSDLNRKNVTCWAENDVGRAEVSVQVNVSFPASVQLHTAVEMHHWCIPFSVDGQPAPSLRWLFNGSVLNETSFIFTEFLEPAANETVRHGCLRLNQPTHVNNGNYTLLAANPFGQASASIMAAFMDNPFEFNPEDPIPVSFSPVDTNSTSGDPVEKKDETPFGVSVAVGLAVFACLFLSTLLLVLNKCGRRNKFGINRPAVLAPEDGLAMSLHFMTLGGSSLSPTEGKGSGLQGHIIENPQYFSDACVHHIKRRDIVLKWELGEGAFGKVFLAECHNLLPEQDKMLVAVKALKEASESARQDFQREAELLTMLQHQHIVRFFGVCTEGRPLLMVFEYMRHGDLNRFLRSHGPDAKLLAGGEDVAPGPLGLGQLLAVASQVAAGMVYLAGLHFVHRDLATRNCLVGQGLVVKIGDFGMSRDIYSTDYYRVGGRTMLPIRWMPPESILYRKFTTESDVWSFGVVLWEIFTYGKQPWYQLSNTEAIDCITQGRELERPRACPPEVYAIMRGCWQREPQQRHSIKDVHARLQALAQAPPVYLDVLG
Assay [2] addresses NT-3 growth factor receptor (Mus musculus) (UniProt Q6VNS1). Description: Binding of FITCanti-TrkC-Ab to TrkC receptor transfected NIH3T3 cells (positive control). The format is cell-based.
For assay [3] the target is unchanged. Kind of assay: Survival of TrkC receptor transfected NIH3T3 cells without NT-3 (negative control). It counts as functional, cell-based.
For assay [4] the target is unchanged. Kind of assay: Survival of TrkC receptor transfected NIH3T3 cells with suboptimal NT-3 (100 pM). It counts as functional, cell-based.
Assay [5] shares this target. Description: Survival of TrkC receptor transfected NIH3T3 cells with 2000 pM NT-3 (positive control). It counts as functional, cell-based.
The target is the same in assay [6]. Kind of assay: Survival of TrkC receptor transfected NIH3T3 cells at o.4 uM without NT-3. It counts as functional, cell-based.
The target is the same in assay [7]. Description: Survival of TrkC receptor transfected NIH3T3 cells at o.4 uM with 100 pM NT-3. It counts as functional, cell-based.
Assay [8] shares this target. Kind of assay: Survival of TrkC receptor transfected NIH3T3 cells at 10 uM without NT-3. It counts as functional, cell-based.
Assay [9] has the same target. Kind of assay: Survival of TrkC receptor transfected NIH3T3 cells at 10 uM with 100 pM NT-3. It counts as functional, cell-based.
For assay [10] the target is unchanged. Kind of assay: Survival of TrkC receptor transfected NIH3T3 cells at 2 uM without NT-3. It counts as functional, cell-based.
Assay [11] shares this target. Description: Survival of TrkC receptor transfected NIH3T3 cells at 2 uM with 100 pM NT-3. It counts as functional, cell-based.
For assay [12] the target is unchanged. Kind of assay: Survival of TrkC receptor transfected NIH3T3 cells at 50 uM without NT-3. It counts as functional, cell-based.
Assay [13] has the same target. Kind of assay: Survival of TrkC receptor transfected NIH3T3 cells at 50 uM with 100 pM NT-3. The format is functional, cell-based.
For assay [14], the system named is NIH3T3. Description: Binding of irrelevant FITC-Ab to NIH3T3 cells (negative control). The format is functional, Mus musculus.
In assay [15] the target is High affinity nerve growth factor receptor (Homo sapiens) (UniProt P04629). Kind of assay: Binding affinity for TrkA receptor transfected NIH3T3 cells at 20 uM without NGF. The format is cell-based.
In assay [16] the target is NT-3 growth factor receptor (Mus musculus) (UniProt Q6VNS1). Description: Binding affinity for TrkC receptor transfected cells at 20 uM with 2 nM NT-3.
NT-3 growth factor receptor (Mus musculus), sequence (Q6VNS1 whole entry): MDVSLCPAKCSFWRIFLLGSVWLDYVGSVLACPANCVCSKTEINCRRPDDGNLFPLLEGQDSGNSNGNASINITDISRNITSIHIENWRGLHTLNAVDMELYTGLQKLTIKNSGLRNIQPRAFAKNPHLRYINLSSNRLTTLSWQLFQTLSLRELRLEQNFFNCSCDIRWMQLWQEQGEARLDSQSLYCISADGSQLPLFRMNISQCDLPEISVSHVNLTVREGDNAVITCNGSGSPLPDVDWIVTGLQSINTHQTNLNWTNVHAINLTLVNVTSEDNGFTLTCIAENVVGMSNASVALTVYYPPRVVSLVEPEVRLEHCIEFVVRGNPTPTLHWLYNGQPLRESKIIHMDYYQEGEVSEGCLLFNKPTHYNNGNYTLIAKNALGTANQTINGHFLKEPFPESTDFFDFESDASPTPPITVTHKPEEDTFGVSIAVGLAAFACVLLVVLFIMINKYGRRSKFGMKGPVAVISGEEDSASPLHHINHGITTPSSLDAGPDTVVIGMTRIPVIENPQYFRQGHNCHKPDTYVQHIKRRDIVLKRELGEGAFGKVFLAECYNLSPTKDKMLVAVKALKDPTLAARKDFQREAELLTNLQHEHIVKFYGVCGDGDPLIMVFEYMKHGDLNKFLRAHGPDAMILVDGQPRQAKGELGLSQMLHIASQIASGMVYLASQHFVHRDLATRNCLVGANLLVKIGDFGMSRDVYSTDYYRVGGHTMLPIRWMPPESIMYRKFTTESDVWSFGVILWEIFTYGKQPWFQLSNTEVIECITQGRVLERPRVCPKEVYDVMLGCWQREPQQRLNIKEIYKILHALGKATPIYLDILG
The target is the same in assay [17]. Kind of assay: Binding affinity for TrkC receptor transfected cells at 20 uM with 20 nM anti-TrkC-Ab.
The target is the same in assay [18]. Description: Binding affinity for TrkC receptor transfected cells at 20 uM without NT-3.
Assay [19] concerns NIH3T3. Kind of assay: Binding affinity for NIH3T3 cells at 20 uM (negative control). It counts as functional, Mus musculus.
Assay [20] deals with High affinity nerve growth factor receptor (Homo sapiens) (UniProt P04629). Description: Binding affinity for TrkA receptor transfected NIH3T3 cells at 20 uM with 2 nM NGF. The format is cell-based.

As for `NCCCC[C@@H]1NC(=O)c2cc([N+](=O)[O-])ccc2NCc2ccc(C(N)=O)cc2NC(=O)[C@H](CO)NC1=O`, the figures for the Max binding in assay [1], in assay [2] and in assay [14] were 71%, 22% and 14%, respectively. The Survival in assay [3] amounted to 0%; in assay [4], 26%; in assay [5] it was 100%; in assay [6] it was 0.2%; in assay [7], 32%; in assay [8], 0.4%. The Survival worked out at 38% in [9]; 0.1% in assay [10]; 33% in assay [11]; 0.2% in assay [12]; 36% in [13].

With `NCCCC[C@@H]1NC(=O)c2cc(NC(=O)CC/N=C(S)/N=C3/C=CC(=C4c5ccc(O)cc5Oc5cc(O)ccc54)C(C(=O)O)=C3)ccc2NCc2ccc(C(N)=O)cc2NC(=O)[C@H](CO)NC1=O`, the Max binding in assay [15] was 22%; in assay [16], 42%; in assay [17], 40%; in assay [18], 11%; in [19], 14%; in assay [20] it was 9%.
